In the experiment the test system is P388 leukemia ip, CD2F1 mice, survival T/C. The experiment is described as follows: NCI In Vivo Anticancer Drug Screen. Data for tumor model P388 Leukemia (intraperitoneal) in CD2F1 (CDF1) mice. To be noted: endpoint: median survival time, higher = longer survival. The gist of the method:
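Mice carrying the transplanted tumor received test compound or vehicle. Survival was recorded in each group, and the value is the treated-group measurement divided by that of the vehicle-treated control group.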

Where [1] appears, read: dose: 50.0 mg/kg/injection, schedule: Q01DX005 (ip), vehicle: Klucel (hydroxypropylcellulose) (HPC).
The mark [2] stands for this setting: dose: 100.0 mg/kg/injection, schedule: Q01DX005 (ip), vehicle: Klucel (hydroxypropylcellulose) (HPC).
The mark [3] stands for this setting: dose: 200.0 mg/kg/injection, schedule: Q01DX005 (ip), vehicle: Klucel (hydroxypropylcellulose) (HPC).
[4] abbreviates: dose: 50.0 mg/kg/injection, schedule: Q01DX009 (ip), vehicle: saline with Tween-80.
Setting [5] is: dose: 100.0 mg/kg/injection, schedule: Q01DX009 (ip), vehicle: saline with Tween-80.
[6] abbreviates: dose: 200.0 mg/kg/injection, schedule: Q01DX009 (ip), vehicle: saline with Tween-80.
[7] abbreviates: dose: 12.5 mg/kg/injection, schedule: Q01DX009 (ip), vehicle: other.
[8] abbreviates: dose: 100.0 mg/kg/injection, schedule: Q01DX001 (ip), vehicle: saline with Tween-80.
The mark [9] stands for this setting: dose: 200.0 mg/kg/injection, schedule: Q01DX001 (ip), vehicle: saline with Tween-80.
The mark [10] stands for this setting: dose: 400.0 mg/kg/injection, schedule: Q01DX001 (ip), vehicle: saline with Tween-80.
[11] abbreviates: dose: 50.0 mg/kg/injection, schedule: Q01DX009 (ip), vehicle: saline.
The mark [12] stands for this setting: dose: 100.0 mg/kg/injection, schedule: Q01DX009 (ip), vehicle: saline.

Values joined by “and” are separate entries in the source; they are usually repeats but may differ in a detail not shown here. Equal entries are not always repeated. Inconclusive results and toxic doses are left out. Peptide text beside a SMILES is read from it.

Consider `CCCCCCC(=O)/C=C/c1cccc(OCc2ccccc2)c1`, for which the T/C is, setting by setting: under setting [1], 90 % of control; under setting [2], 87 % of control; under setting [3], 94 % of control.

`COc1ccc(-c2cc(=O)c3cccc(CC(=O)O)c3o2)cc1`: the T/C is, setting by setting: (dose: 12.5 mg/kg/injection, schedule: Q01DX005 (ip), vehicle: Klucel (hydroxypropylcellulose) (HPC)) 105 % of control; (dose: 25.0 mg/kg/injection, schedule: Q01DX005 (ip), vehicle: Klucel (hydroxypropylcellulose) (HPC)) 104 % of control; under setting [1], 114 % of control and 98 % of control; under setting [2], 170 % of control.

With `C=C1C[C@]23C[C@H](O)[C@]4(O)[C@@]5(C)C[C@H](O)C[C@]46C(C2[C@@H]1[C@@H](OC(=O)/C(C)=C/C)[C@@H](OC(=O)/C(C)=C/C)[C@H]36)N(C)C5` (some centres undefined), the T/C reads like this: (dose: 0.5 mg/kg/injection, schedule: Q01DX005 (ip), vehicle: saline + alcohol) 102 % of control; (dose: 1.0 mg/kg/injection, schedule: Q01DX005 (ip), vehicle: saline + alcohol) 105 % of control and 106 % of control; (dose: 2.0 mg/kg/injection, schedule: Q01DX005 (ip), vehicle: saline + alcohol) 105 % of control and 109 % of control; (dose: 4.0 mg/kg/injection, schedule: Q01DX005 (ip), vehicle: saline + alcohol) 103 % of control and 109 % of control; (dose: 8.0 mg/kg/injection, schedule: Q01DX005 (ip), vehicle: saline + alcohol) 103 % of control.

As for `CCOC(=O)C1=NN(c2ccccc2)C(C(N)=O)C1` (centres undefined), the T/C (dose: 60.0 mg/kg/injection, schedule: Q01DX005 (ip), vehicle: saline with Tween-80) was 100 % of control; the T/C (dose: 120.0 mg/kg/injection, schedule: Q01DX005 (ip), vehicle: saline with Tween-80) was 101 % of control; the T/C (dose: 240.0 mg/kg/injection, schedule: Q01DX005 (ip), vehicle: saline with Tween-80) is 101 % of control.

Regarding `CCCc1n(O)c(C)c(C)[n+]1[O-]`, the T/C was 91 % of control under setting [4], 100 % of control under setting [5] and 104 % of control under setting [6].

Regarding `Cc1nc2[nH]ncc2c(=O)n1-c1ccccc1`, the T/C by setting is: under setting [1], 97 % of control; under setting [2], 99 % of control; under setting [3], 100 % of control.

Regarding `CCc1[nH]c2ccc(C)cc2c1C(=O)c1cccnc1`, the T/C runs as follows: (dose: 50.0 mg/kg/injection, schedule: Q04DX003 (ip), vehicle: Klucel (hydroxypropylcellulose) (HPC)) 94 % of control; (dose: 100.0 mg/kg/injection, schedule: Q04DX003 (ip), vehicle: Klucel (hydroxypropylcellulose) (HPC)) 103 % of control; (dose: 200.0 mg/kg/injection, schedule: Q04DX003 (ip), vehicle: Klucel (hydroxypropylcellulose) (HPC)) 98 % of control.

For `O=C(O)/C=N/NS(=O)(=O)c1cccs1`, under setting [7], the T/C was 119 % of control.

With `CC1CCCCN1C=C1C(=O)OC(C)(C)OC1=O` (centres undefined), the T/C was 95 % of control (dose: 60.0 mg/kg/injection, schedule: Q01DX005 (ip), vehicle: Klucel (hydroxypropylcellulose) (HPC)) and 96 % of control (dose: 120.0 mg/kg/injection, schedule: Q01DX005 (ip), vehicle: Klucel (hydroxypropylcellulose) (HPC)).

As for `COC(=O)/C(=C\C=C\c1ccccc1)NC(=O)c1ccccc1`, the T/C under setting [8] was 100 % of control, the T/C under setting [9] is 96 % of control and the T/C under setting [10] was 89 % of control.

As to `COc1ccc(-c2cnc(=O)[nH]c2N)cc1`, the T/C is, setting by setting: (dose: 60.0 mg/kg/injection, schedule: Q01DX005 (ip), vehicle: suspension in saline) 99 % of control; (dose: 120.0 mg/kg/injection, schedule: Q01DX005 (ip), vehicle: suspension in saline) 97 % of control; (dose: 240.0 mg/kg/injection, schedule: Q01DX005 (ip), vehicle: suspension in saline) 105 % of control.

Consider `CCC(CCC(C)C1CCC2C3CC=C4CC(OC(=O)CCC(=O)O)CCC4(C)C3CCC12C)C(C)C` (centres undefined), for which the T/C is, setting by setting: (dose: 100.0 mg/kg/injection, schedule: Q04DX003 (ip), vehicle: saline with Tween-80) 95 % of control; (dose: 200.0 mg/kg/injection, schedule: Q04DX003 (ip), vehicle: saline with Tween-80) 87 % of control; (dose: 400.0 mg/kg/injection, schedule: Q04DX003 (ip), vehicle: saline with Tween-80) 87 % of control.

On to `Cc1ccc(S(=O)(=O)N/N=C/c2ccc(O)c(O)c2)cc1`, for which the T/C under setting [7] was 112 % of control; the T/C (dose: 25.0 mg/kg/injection, schedule: Q01DX009 (ip), vehicle: other) was 112 % of control; the T/C (dose: 50.0 mg/kg/injection, schedule: Q01DX009 (ip), vehicle: other) was 112 % of control; the T/C (dose: 100.0 mg/kg/injection, schedule: Q01DX009 (ip), vehicle: other) is 111 % of control and 120 % of control; the T/C (dose: 200.0 mg/kg/injection, schedule: Q01DX009 (ip), vehicle: other) is 112 % of control and 121 % of control; the T/C (dose: 400.0 mg/kg/injection, schedule: Q01DX009 (ip), vehicle: other) is 122 % of control.

Turning to `CN1CCN(CN2C(=O)C3C4C=CC(C3C2=O)C2C(=O)N(CN3CCN(C)CC3)C(=O)C42)CC1` (centres undefined), the T/C reads like this: (dose: 12.5 mg/kg/injection, schedule: Q01DX009 (ip), vehicle: saline) 108 % of control; (dose: 25.0 mg/kg/injection, schedule: Q01DX009 (ip), vehicle: saline) 105 % of control; under setting [11], 108 % of control; under setting [12], 113 % of control; (dose: 200.0 mg/kg/injection, schedule: Q01DX009 (ip), vehicle: saline) 122 % of control.

Take `O=P(Oc1ccccc1)(Oc1ccccc1)C(Nc1ccc(C(F)(F)F)cc1)c1ccccc1` (centres undefined): the T/C was 99 % of control (dose: 50.0 mg/kg/injection, schedule: Q01DX009 (ip), vehicle: Klucel (hydroxypropylcellulose) (HPC)); 93 % of control (dose: 100.0 mg/kg/injection, schedule: Q01DX009 (ip), vehicle: Klucel (hydroxypropylcellulose) (HPC)); 86 % of control (dose: 200.0 mg/kg/injection, schedule: Q01DX009 (ip), vehicle: Klucel (hydroxypropylcellulose) (HPC)).

As for `OCC1OC(OC2C(CO)OC(Sc3ccccc3)C(O)C2O)C(O)C(O)C1O` (centres undefined), the T/C runs as follows: under setting [1], 101 % of control; under setting [2], 105 % of control; under setting [3], 105 % of control.

`CCCCCCCCCCCCCC(=O)OCCN1CCN(CCCN2c3ccccc3Sc3ccc(C(F)(F)F)cc32)CC1`: the T/C reads like this: (dose: 3.12 mg/kg/injection, schedule: Q01DX009 (ip), vehicle: saline with Tween-80) 106 % of control; (dose: 6.25 mg/kg/injection, schedule: Q01DX009 (ip), vehicle: saline with Tween-80) 102 % of control; (dose: 12.5 mg/kg/injection, schedule: Q01DX009 (ip), vehicle: saline with Tween-80) 112 % of control and 113 % of control; (dose: 25.0 mg/kg/injection, schedule: Q01DX009 (ip), vehicle: saline with Tween-80) 116 % of control.

`O=C(c1ccccc1)c1ccccc1-c1ccccc1C(=O)c1ccccc1`: the T/C runs as follows: under setting [4], 102 % of control; under setting [5], 92 % of control; under setting [6], 87 % of control.

For the compound `Clc1ccc2c(nnn2OC2CCCC2)c1Cl`, the T/C is, setting by setting: under setting [4], 88 % of control; under setting [5], 94 % of control; under setting [6], 94 % of control.

`OCCOc1ccc2ccccc2c1-c1c(OCCOc2ccc3ccccc3c2-c2c(OCCO)ccc3ccccc23)ccc2ccccc12`: the T/C reads like this: under setting [8], 96 % of control; under setting [9], 88 % of control; under setting [10], 92 % of control.

Turning to `CN(C)CCC(=O)c1ccc(Cl)cc1Cl`, the T/C under setting [11] was 110 % of control and the T/C under setting [12] is 100 % of control.

Regarding `Nc1cc2oc(=O)[nH]c2cc1Cl`, the T/C reads like this: under setting [1], 90 % of control; under setting [2], 92 % of control; under setting [3], 103 % of control.

In the case of `NC(CCC(=O)O)C(=O)NC(Cc1c[nH]c2ccccc12)C(=O)NC(CCC(=O)O)C(=O)O` (stereo not drawn) (H-Glu-Trp-Glu-OH; configuration not given here), the T/C was 93 % of control (dose: 50.0 mg/kg/injection, schedule: Q01DX005 (ip), vehicle: saline); 104 % of control (dose: 100.0 mg/kg/injection, schedule: Q01DX005 (ip), vehicle: saline); 105 % of control (dose: 200.0 mg/kg/injection, schedule: Q01DX005 (ip), vehicle: saline).
